2 molecules from US8618088B2, “Methods of inhibiting choroidal neovascularization” (University of Pennsylvania, priority 2002, dated 2013) can be followed below.

Molecules are shown by their SMILES.

Series [1] relates to choroidal neovascularization (CNV). Nature of the series: Matrigel subretinal injection model of choroidal neovascularization (CNV), Vessel Paint staining and fluorescence microscopy. Format: in vivo, Sprague-Dawley rats. As to the method:
In search of effective treatments for CNV, a simple animal model was created by injecting 2-3µl Matrigel™ to the subretinal space of adult Sprague-Dawley rats using a 33-gauge needle connected to a 10µl Hamilton microsyringe. A week or more later the animals were sacrificed by CO2 inhalation and perfused with Vessel Paint, a new visualization technique recently developed in the inventors' lab that enables screening agents, including chemical compounds and proteins, for their potential in inhibiting CNV (Wen, ARVO Abstract, March 2002). Vessel Painting comprises the use of a solution containing DiI, followed by 4% paraformaldehyde solution, and is discussed further below.
The anterior portion of the eye, including the cornea and lens, was removed, and the eyecup was imbedded in 5% agarose. […] Eye sections were examined by fluorescence microscopy for neovascularization in the Matrigel™ deposit. […] Protein leakage of the new vessels was detected by assessing color change in the Matrigel™ deposit after intravenous injection of Evan's Blue dye. […]
Adult Sprague-Dawley rats (n=22) were injected with Matrigel™ to the subretinal space. […] Tissue sections were examined by fluorescence microscopy. […]
Eyes were collected 10 days after injection and blood vessels were stained with Vessel Paint. […] CNV was examined by fluorescence microscopy and CNV index of each eye was calculated.

A further series in a line: Solubility in water. Format: physicochemical.

On to `C=CC[C@@H]1/C=C(\C)C[C@H](C)C[C@H](OC)[C@H]2O[C@@](O)(C(=O)C(=O)N3CCCC[C@H]3C(=O)O[C@H](/C(C)=C/[C@@H]3CC[C@@H](O)[C@H](OC)C3)[C@H](C)[C@@H](O)CC1=O)[C@H](C)C[C@@H]2OC` [FK506], for which the “CNV index (mean)” value in series [1] (suspension in Matrigel 10 μg/μl, 1.2 μl subretinal, 10 days after injection) was “Mean = 12.67 (n = 6)”. Moreover, the solubility in water result in the series “Solubility in water” is reported as “not water soluble”.
`CO[C@H]1C[C@@H]2CC[C@@H](C)[C@@](O)(O2)C(=O)C(=O)N2CCCC[C@H]2C(=O)O[C@H]([C@H](C)C[C@@H]2CC[C@@H](O)[C@H](OC)C2)CC(=O)[C@H](C)/C=C(\C)[C@@H](O)[C@@H](OC)C(=O)[C@H](C)C[C@H](C)/C=C/C=C/C=C/1C` [rapamycin]: in series [1] (all experiments), the “effect on the normal vasculature of the eye” value was “no discernable effect”. In addition, the solubility in water entry in “Solubility in water” is “not soluble in water”.
